Consider four compounds from patent US20070054887A1, “Methods for treating bladder dysfunction” (BioXell S.p.A, priority 2003, published 2007).

The test system of series [1] is BPH cells. The note with it: previously found, cited from earlier work; for BPH cell proliferation: also counteracted mitogenic activity of KGF and IGFI.
For series [2], the system named is human bladder cells. Description: inhibition of basal human bladder cell growth. The class given is cell-based.
Series [3] relates to rats with CYP-induced cystitis. As to the kind of experiment: cyclophosphamide (CYP) induced chronic cystitis in rats: conscious cystometry. It is filed as in vivo, Wistar rats. Set-up: amplitude of NVBC (amplitude of non-voiding bladder contraction): unit not given here. An excerpt: The rat model of chemical cystitis induced by intraperitoneal injection of CYP has been well accepted. CYP is used in clinical practice in the treatment of a number of malignant tumors. One of its metabolites, acrolein, is excreted in urine in large concentrations causing hemorrhagic cystitis associated with symptoms of urinary frequency, urgency and pelvic pain. The inflammatory process is characterized by changes in gross histology of bladder, increase in number and distribution of inflammatory cell infiltrates (mast cells, macrophage, PMNs), cyclo-oxygenase-2 expression and prostaglandin production, growth factor and cytokine production. The rat model of chemical cystitis closely resembles interstitial cystitis, a chronic, painful urinary bladder syndrome and has been used for the testing of therapeutic agents in the past.
This model was used to test the effects of 1,25-dihydroxyvitamin D3 analogue in rats with CYP-induced cystitis. The effects of the treatment on the cystometric parameters in a conscious freely moving rat with CYP-induced cystitis were monitored. The following cystometric parameters were recorded in each animal:
Animals: Wistar rats weighing 125-175 g were used. […] Following recovery all animals received three intraperitoneal injections of CYP and subsequently were divided into the treatment and sham control groups.
Treatment group: Rats treated with oral 1,25-dihydroxyvitamin D3 analogue 1,3-di-O-acetyl-1,25-dihydroxy-16,23Z-diene-26,27-hexafluoro-19-nor-cholecalciferol (“Compound C”) for 14 days (daily dose of 0.1 μg/kg) [drawing 138]
Cystometry was performed 24 hours following the last dose of the drug or vehiculum on awake freely moving animals.
A lower midline abdominal incision was performed under general inhalation anesthesia (isoflurine with O2) and polyethylene tubing (PE-50, Clay Adams, Parsippany, N.J.) with the end flared by heat was inserted into the dome of the bladder and secured in place with a 6-0 prolene purse string suture. The distal end of the tubing was heat-sealed, tunneled subcutaneously and externalized at the back of the neck, out of the animal's reach. Abdominal and neck incisions were closed with 4-0 nylon sutures.
Following recovery (5 days) subject animals underwent three intraperitoneal injections of CYP (Sigma Chemical, St. Louis, Mo.; 75 mg/kg each, intraperitoneal) over the period of nine days. On the tenth day following the first CYP injection the sham control animals received the vehicle only, whereas the experimental group were treated with the 1,25-dihydroxyvitamin D3 analogue 1,3-di-O-acetyl-1,25-dihydroxy-16,23Z-diene-26,27-hexafluoro-19-nor-cholecalciferol “Compound C” (delivered using gavage). Two weeks following the initiation of the treatment animals underwent a conscious cystometrogram to assess the function of the urinary bladder.
An animal was placed unrestrained in a cage and the catheter was connected via a T-tube to a pressure transducer (Grass® Model PT300, West Warwick, R.I.) and microinjection pump (Harvard Apparatus 22, South Natick, Mass.). A 0.9% saline solution was infused at room temperature into the bladder at a rate of 10 ml/h. Intravesical pressure was recorded continuously using a Neurodata Acquisition System (Grass® Model 15, Astro-Med, Inc, West Warwick, R.I.). At least three reproducible micturition cycles were recorded after the initial stabilization period of 25-30 min.

Series [4] is described as follows: maximum tolerated dose (MTD) in rats. The note with it: rat, in vivo, read-out: MTD. The class given is in vivo. An excerpt:
The maximum tolerated dose (MTD) in rats is also listed for each compound.

Series [5] deals with hBC. Description: androgen-stimulated hBC growth, 48 h incubation. The following applies: DHT 10 nM, Compound A 1 nM, finasteride 1 nM, FIG. 5. The class given is cell-based, human. An excerpt: Results are expressed as percentage variation (mean±SEM) over their relative controls and derived from at least three different experiments obtained from three distinct hBC cell preparations. *P<0.05 (vs. control); °P<0.01 (vs. androgen-treated cells).

Where [6] appears, read: drug treated animals versus vehicle, 0.1 μg/kg oral 14 days.
The mark [7] stands for this setting: oral 0.1 μg/kg daily for 14 days, individual rats, three micturition cycles each.

The structures appear in SMILES notation. “And” between values parts separate entries of the source, which are not always exact repeats. Equal values may be shown once.

On to `C=C1/C(=C\C=C2/CCC[C@]3(C)C([C@H](C)CC#CC(C)(C)O)=CC[C@@H]23)C[C@@H](O)C[C@@H]1O` [Compound B, 1,25-dihydroxy-16-ene-23-yne cholecalciferol], for which the BPH cell proliferation entry in series [1] is “inhibited”. Moreover, in series [1] (unstimulated and KGF-stimulated BPH cells), the “apoptosis in BPH cells” value was “induced”. In addition, the “inhibition of bladder cell growth” value in series [2] (stimulated and basal bladder cell growth, FIG. 4, in some cases significantly greater than anti-androgens such as finasteride) is “demonstrated”.

The MTD is the largest dose that counted as tolerated. What is called IC50 is the midpoint of a concentration-inhibition curve. With `CC(=O)OC1C/C(=C/C=C2\CCC[C@]3(C)C(C(C)C/C=C\C(O)(C(F)(F)F)C(F)(F)F)=CCC23)C[C@@H](OC(C)=O)C1` (stereo partly drawn) [Compound C, 1,3-di-O-acetyl-1,25-dihydroxy-16,23Z-diene-26,27-hexafluoro-19-nor-cholecalciferol], in series [3] (setting [6]), the “amplitude of non-voiding bladder contractions, change versus control” value is listed as “Dramatic reductions”; the “bladder capacity, change versus control” value is given as “did not result in a change”; the “filling pressure, change versus control” value is on record as “statistically significant reductions”; the “number of non-voiding bladder contractions, change versus control” value is “Dramatic reductions”. In series [3] (setting [6]), the “threshold pressure, change versus control” value is reported as “statistically significant reductions”. The “Bl. Cap. (bladder capacity)” value in series [3] (oral 0.1 μg/kg daily for 14 days, individual rats RB7, RB13, RB15, three micturition cycles each) is 1.9 ml and 1.3 ml (2×) and 2.5 ml and 1.5 ml and 0.7 ml (2×) and 0.8 ml and 1.4 ml. In series [3] (setting [7]), the “# of NVBC (number of non-voiding bladder contractions)” value was 4 and 8 (2×) and 0 (6×); the “FP (filling pressure)” value is 15 cmH2O and 14 cmH2O (3×) and 12 cmH2O and 11 cmH2O and 10 cmH2O and 13 cmH2O (2×); the “MP (micturition pressure)” value was 105 cmH2O and 97 cmH2O (2×) and 90 cmH2O and 100 cmH2O and 108 cmH2O and 98 cmH2O and 101 cmH2O and 104 cmH2O; the “TP (threshold pressure)” value was 16 cmH2O and 17 cmH2O and 14 cmH2O (4×) and 12 cmH2O and 11 cmH2O and 15 cmH2O. In addition, the “amplitude of NVBC (amplitude of non-voiding bladder contraction)” value in series [3] (setting [7]) was 10 and 11 (2×) and 0 (6×). Moreover, the MTD in series [4] worked out at 0.1 µg/kg. The same compound showed an IC50 in series [2] (Homo sapiens) of 39.8 nM.

Consider `CC(C)(C)NC(=O)[C@H]1CC[C@H]2[C@@H]3CC[C@H]4NC(=O)C=C[C@]4(C)[C@H]3CC[C@]12C` [finasteride, reference compound], for which the “hBC proliferation stimulated by the androgen DHT” value in series [5] is reported as “no significant effect”.

As to `C=C1CC[C@H](O)C/C1=C/C=C1\CCC[C@]2(C)[C@@H]([C@H](C)CCCC(C)C)CC[C@@H]12` [vitamin D3, reference compound], the BPH cell proliferation entry in series [1] is “inhibited”.
